In patent US11998539B2, “Substituted aminoquinolones as DGKalpha inhibitors for immune activation” (Bayer Aktiengesellschaft, priority 2019, dated 2024) one finds IC50 data, which are given here for 32 compounds.

DGKα, sequence (P23743 other isoform, or with tags, fused parts or gaps): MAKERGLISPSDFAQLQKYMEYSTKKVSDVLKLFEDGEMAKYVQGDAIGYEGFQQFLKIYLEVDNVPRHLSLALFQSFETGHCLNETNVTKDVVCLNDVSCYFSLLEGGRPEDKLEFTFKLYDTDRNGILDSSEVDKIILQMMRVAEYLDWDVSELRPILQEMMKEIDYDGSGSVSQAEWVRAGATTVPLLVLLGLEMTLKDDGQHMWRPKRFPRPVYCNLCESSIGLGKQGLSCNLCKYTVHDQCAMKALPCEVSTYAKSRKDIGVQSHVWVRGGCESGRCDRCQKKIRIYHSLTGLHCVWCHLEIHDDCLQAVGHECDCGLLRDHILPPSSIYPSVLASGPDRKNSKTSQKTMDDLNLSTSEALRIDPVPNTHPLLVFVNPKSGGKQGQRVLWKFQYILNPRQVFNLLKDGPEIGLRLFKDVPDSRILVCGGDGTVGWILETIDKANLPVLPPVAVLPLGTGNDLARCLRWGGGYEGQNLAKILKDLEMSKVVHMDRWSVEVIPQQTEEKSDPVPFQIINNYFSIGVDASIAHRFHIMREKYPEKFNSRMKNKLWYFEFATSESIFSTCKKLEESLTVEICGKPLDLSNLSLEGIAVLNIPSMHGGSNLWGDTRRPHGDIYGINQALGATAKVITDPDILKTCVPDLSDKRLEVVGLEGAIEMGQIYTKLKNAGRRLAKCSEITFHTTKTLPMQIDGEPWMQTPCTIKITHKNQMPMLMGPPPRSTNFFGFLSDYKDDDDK

This test concerns the target DGKα (Homo sapiens (Human), UniProt P23743). Put plainly: Human DGKα kinase activity inhibition assay (ADP-Glo). Type of test: biochemical. To be noted: recombinant full-length human DGKα, 55 μM ATP, 7 μM 1,2-dioleoyl-sn-glycerol, read-out: IC50 values of examples in in vitro human DGKa kinase activity inhibition assays. The gist of the method:
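Activity was measured as ADP production, detected by luciferase luminescence after removal of unused ATP. The enzyme was baculovirus-expressed full-length human DGKα with a C-terminal FLAG tag. The substrate was 1,2-dioleoyl-sn-glycerol in detergent micelles, and compounds came from 100× DMSO solutions.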
Consider `Cc1ccc2oc(C3CCN(c4c(C#N)c(=O)n(C)c5cc([N+](=O)[O-])c(C)cc45)CC3)nc2c1` [Example 421, 1,6-dimethyl-4-[4-(5-methyl-1,3-benzoxazol-2-yl)piperidin-1-yl]-7-nitro-2-oxo-1,2-dihydroquinoline-3-carbonitrile], for which the IC50 was 137 nM.
With `Cc1ccc2oc(C3CCN(c4c(C(N)=O)c(=O)n(C)c5cc(OC6CCOCC6)ccc45)CC3)nc2c1` [Example 479, 1-methyl-4-[4-(5-methyl-1,3-benzoxazol-2-yl)piperidin-1-yl]-7-[(oxan-4-yl)oxy]-2-oxo-1,2-dihydroquinoline-3-carboxamide], the IC50 came to 59 nM.
To `Cc1ccc2oc(C3CCN(c4c(C(N)=O)c(=O)n(C)c5ccc(OCC(C)(F)F)cc45)CC3)nc2c1` [Example 503, 6-(2,2-difluoropropoxy)-1-methyl-4-[4-(5-methyl-1,3-benzoxazol-2-yl)piperidin-1-yl]-2-oxo-1,2-dihydroquinoline-3-carboxamide] belongs 2690 nM; to `COc1ccc(C2CCN(c3c(C#N)c(=O)n(C)c4cc(C5=CCOCC5)ccc34)CC2)cc1` [Example 100, 7-(3,6-dihydro-2H-pyran-4-yl)-4-[4-(4-methoxyphenyl)piperidin-1-yl]-1-methyl-2-oxo-1,2-dihydroquinoline-3-carbonitrile], 2.3 nM.
Next, `Cc1ccc2c(c1)c(N1CCC(C)(c3nc4cc(C(C)C)ccc4o3)CC1)c(C#N)c(=O)n2C` [Example 189, 1,6-dimethyl-4-{4-methyl-4-[5-(propan-2-yl)-1,3-benzoxazol-2-yl]piperidin-1-yl}-2-oxo-1,2-dihydroquinoline-3-carbonitrile]: 15 nM; `Cc1ccc2oc(C3CCN(c4c(C#N)c(=O)n(C)c5cc(O)c(Cl)cc45)CC3)nc2c1` [Example 567, 6-chloro-7-hydroxy-1-methyl-4-[4-(5-methyl-1,3-benzoxazol-2-yl)piperidin-1-yl]-2-oxo-1,2-dihydroquinoline-3-carbonitrile]: 2 nM.
For the compound `Cc1ccc2oc(C3CCN(c4c(C(N)=O)c(=O)n(C)c5ccc(C6CCC6)cc45)CC3)nc2c1` [Example 506, 6-cyclobutyl-1-methyl-4-[4-(5-methyl-1,3-benzoxazol-2-yl)piperidin-1-yl]-2-oxo-1,2-dihydroquinoline-3-carboxamide], the IC50 came out at 574 nM.
Next, `Cc1ccc2oc(C3CCN(c4c(C#N)c(=O)n(C)c5cc(P(C)(C)=O)ccc45)CC3)nc2c1` [Example 282, 7-(dimethylphosphoryl)-1-methyl-4-[4-(5-methyl-1,3-benzoxazol-2-yl)piperidin-1-yl]-2-oxo-1,2-dihydroquinoline-3-carbonitrile]: 872 nM; `Cn1c(=O)c(C#N)c(N2CCC(c3nc4ccccc4o3)CC2)c2ccccc21` [Example 2, 4-[4-(1,3-benzoxazol-2-yl)piperidin-1-yl]-1-methyl-2-oxo-1,2-dihydroquinoline-3-carbonitrile]: 6.4 nM.
With `Cc1ccc2oc(C3CCN(c4c(C#N)c(=O)n(C)c5cc(N(C)C6COC6)ccc45)CC3)nc2c1` [Example 398, 1-methyl-4-[4-(5-methyl-1,3-benzoxazol-2-yl)piperidin-1-yl]-7-[methyl(oxetan-3-yl)amino]-2-oxo-1,2-dihydroquinoline-3-carbonitrile], the IC50 was found to be 1.7 nM.
To `Cn1c(=O)c(C(N)=O)c(N2CCC(C)(c3nc4ccccc4o3)CC2)c2cc(F)ccc21` [Example 296, 4-[4-(1,3-benzoxazol-2-yl)-4-methylpiperidin-1-yl]-6-fluoro-1-methyl-2-oxo-1,2-dihydroquinoline-3-carboxamide] belongs 0.5 nM.
Next, `Cc1ccc2oc(C3CCN(c4c(C#N)c(=O)n(C)c5cc(OC6COC6)ccc45)CC3)nc2c1` [Example 385, 1-methyl-4-[4-(5-methyl-1,3-benzoxazol-2-yl)piperidin-1-yl]-7-[(oxetan-3-yl)oxy]-2-oxo-1,2-dihydroquinoline-3-carbonitrile]: 0.9 nM; `COc1ccc2c(c1)c(N1CCC(c3nc4ccc(C)cc4o3)CC1)c(C#N)c(=O)n2C` [Example 190, 6-methoxy-1-methyl-4-[4-(6-methyl-1,3-benzoxazol-2-yl)piperidin-1-yl]-2-oxo-1,2-dihydroquinoline-3-carbonitrile]: 5.7 nM; `Cc1ccc2oc(C3CCN(c4c(C#N)c(=O)n(C)c5ccc(OCC(C)(F)F)cc45)CC3)nc2c1` [Example 406, 6-(2,2-difluoropropoxy)-1-methyl-4-[4-(5-methyl-1,3-benzoxazol-2-yl)piperidin-1-yl]-2-oxo-1,2-dihydroquinoline-3-carbonitrile]: 36 nM.
Turning to `Cn1c(=O)c(C#N)c(N2CCC(c3nc4ccc(C5COC5)cc4o3)CC2)c2ccccc21` [Example 388, 1-methyl-4-{4-[6-(oxetan-3-yl)-1,3-benzoxazol-2-yl]piperidin-1-yl}-2-oxo-1,2-dihydroquinoline-3-carbonitrile], the IC50 worked out at 33 nM.
As for `Cn1c(=O)c(C(N)=O)c(N2CCC(C)(c3nc4ccccc4o3)CC2)c2ccccc21` [Example 105, 4-[4-(1,3-benzoxazol-2-yl)-4-methylpiperidin-1-yl]-1-methyl-2-oxo-1,2-dihydroquinoline-3-carboxamide], the IC50 was found to be 1.9 nM.
Turning to `Cn1c(=O)c(C#N)c(N2CCC(c3cccc4ncsc34)CC2)c2ccccc21` [Example 75, 4-[4-(1,3-benzothiazol-7-yl)piperidin-1-yl]-1-methyl-2-oxo-1,2-dihydroquinoline-3-carbonitrile], the IC50 came to 49 nM.
Next, `Cc1ccc2oc(C3CCN(c4c(C#N)c(=O)n(C)c5cc(N(C)CCO)ccc45)CC3)nc2c1` [Example 399, 7-[(2-hydroxyethyl)(methyl)amino]-1-methyl-4-[4-(5-methyl-1,3-benzoxazol-2-yl)piperidin-1-yl]-2-oxo-1,2-dihydroquinoline-3-carbonitrile]: 0.5 nM; `Cn1c(=O)c(C#N)c(N2CCC(c3nc4ccc(F)cc4o3)CC2)c2ccccc21` [Example 4, 4-[4-(6-fluoro-1,3-benzoxazol-2-yl)piperidin-1-yl]-1-methyl-2-oxo-1,2-dihydroquinoline-3-carbonitrile]: 2.8 nM.
To `COc1cccc(-c2csc(C3CCN(c4c(C(N)=O)c(=O)n(C)c5ccccc45)CC3)n2)c1` [Example 476, 4-{4-[4-(3-methoxyphenyl)-1,3-thiazol-2-yl]piperidin-1-yl}-1-methyl-2-oxo-1,2-dihydroquinoline-3-carboxamide] belongs 7.1 nM; to `Cn1c(=O)c(C#N)c(N2CCC(c3cccc(Br)c3)CC2)c2ccccc21` [Example 85], 54 nM; to `Cc1ccc2oc(C3(C)CCN(c4c(C#N)c(=O)n(C)c5c(C)cccc45)CC3)nc2c1` [Example 263, 1,8-dimethyl-4-[4-methyl-4-(5-methyl-1,3-benzoxazol-2-yl)piperidin-1-yl]-2-oxo-1,2-dihydroquinoline-3-carbonitrile], 42 nM.
To `COc1ccc(C2CCN(c3c(C#N)c(=O)n(C)c4ccc(S(C)(=O)=O)cc34)CC2)cc1` [Example 178, 6-(methanesulfonyl)-4-[4-(4-methoxyphenyl)piperidin-1-yl]-1-methyl-2-oxo-1,2-dihydroquinoline-3-carbonitrile] belongs 298 nM; to `Cc1ccc2c(c1)c(N1CCC(c3nc4ccc(Cl)cc4o3)CC1)c(C#N)c(=O)n2C` [Example 183, 4-[4-(6-chloro-1,3-benzoxazol-2-yl)piperidin-1-yl]-1,6-dimethyl-2-oxo-1,2-dihydroquinoline-3-carbonitrile], 1.5 nM; to `Cn1c(=O)c(C#N)c(N2CCC(c3cccc(NC(=O)c4ccccc4)c3)CC2)c2ccccc21` [Example 76, N-{3-[1-(3-cyano-1-methyl-2-oxo-1,2-dihydroquinolin-4-yl)piperidin-4-yl]phenyl}benzamide], 50 nM.
On to `Cc1ccc2oc(C3(C)CCN(c4c(C#N)c(=O)n(C)c5ccc(C#N)cc45)CC3)nc2c1` [Example 207, 1-methyl-4-[4-methyl-4-(5-methyl-1,3-benzoxazol-2-yl)piperidin-1-yl]-2-oxo-1,2-dihydroquinoline-3,6-dicarbonitrile], for which the IC50 was 2.7 nM.
To `Cn1c(=O)c(C#N)c(N2CCC(c3cccc4cnccc34)CC2)c2ccccc21` [Example 78, 4-[4-(isoquinolin-5-yl)piperidin-1-yl]-1-methyl-2-oxo-1,2-dihydroquinoline-3-carbonitrile] belongs 104 nM; to `COc1ccc2oc(C3CCN(c4c(C#N)c(=O)n(C)c5ccccc45)CC3)nc2c1` [Example 386, 4-[4-(5-methoxy-1,3-benzoxazol-2-yl)piperidin-1-yl]-1-methyl-2-oxo-1,2-dihydroquinoline-3-carbonitrile], 9.4 nM.
For `Cc1ccccc1-c1nnc(C2CCN(c3c(C#N)c(=O)n(C)c4cc(O)c(Br)cc34)CC2)o1` [Example 445, 6-bromo-7-hydroxy-1-methyl-4-{4-[5-(2-methylphenyl)-1,3,4-oxadiazol-2-yl]piperidin-1-yl}-2-oxo-1,2-dihydroquinoline-3-carbonitrile], the IC50 came to 44 nM.
On to `Cn1c(=O)c(C#N)c(N2CCC(c3nc4ccc(Br)cc4o3)CC2)c2ccccc21` [Example 294, 4-[4-(6-bromo-1,3-benzoxazol-2-yl)piperidin-1-yl]-1-methyl-2-oxo-1,2-dihydroquinoline-3-carbonitrile], for which the IC50 turned out to be 12 nM.
Take `COC1(c2cccc(Cl)c2)CCN(c2c(C#N)c(=O)n(C)c3ccccc23)CC1` [Example 336, 4-[4-(3-chlorophenyl)-4-methoxypiperidin-1-yl]-1-methyl-2-oxo-1,2-dihydroquinoline-3-carbonitrile]: the IC50 amounted to 80 nM.
Next, `Cn1c(=O)c(C#N)c(N2CCC(c3ccccc3)CC2)c2ccc(Br)cc21` [Example 90, 7-bromo-1-methyl-2-oxo-4-(4-phenylpiperidin-1-yl)-1,2-dihydroquinoline-3-carbonitrile]: 5.5 nM.
